Data from patent US12459940B2, “Oxazole compound as multi-targeted inhibitor of IRAK4 and BTK” (SHANGHAI FOSUN PHARMACEUTICAL INDUSTRIAL DEVELOPMENT CO., …, priority 2019, dated 2025).

Key:
[1] = system: TMD8 human B-cell lymphoma cells; test: TMD-8 cell proliferation inhibition (CellTiter-Glo); format: cell-based; conditions: TMD8, 72 h, treated for 3 days
Method: TMD8 human B-cell lymphoma cells were cultured in a 37° C., 5% CO2 incubator. The composition of medium was RPMI1640 (GIBCO, Cat #22400-089); the supplementary compositions were 10% FBS (Hyclone, Cat #SH30084.03); 1% PenStrep (Thermo, Cat #SV30010).
The tumor cell lines OCI-LY10 and TMD8 were used to detect the effect of the compound on inhibiting tumor cell proliferation in vitro. The tumor cell line was cultured in a 37° C., 5% CO2 incubator according to the culture conditions shown, and passaged regularly, then the cells in the logarithmic growth phase were taken, counted, and spread in a 96-well plate (the cells in each well were adjusted to an appropriate concentration, a total of […] per well was added). After incubating overnight in a 37° C., 5% CO2 incubator, drugs with different concentration gradients (10 μL of drug solution was added) were added and treated for 3 days, then 50 μL of CellTiter-Glo working solution was added to each well, and the cell plate was wrapped with aluminum foil to avoid light. The culture plate was shaken on an orbital shaker for 2 minutes to induce cell lysis, and placed at room temperature for 10 minutes to stabilize the luminescence signal, then the luminescence signal was detected on the 2104 EnVision plate reader.
The Inhibition rate (IR) of the tested compound was calculated using the following formula: IR (%)=(1−(RLU compound−RLU blank control)/(RLU solvent control−RLU blank control))*100%.
The inhibition rates of different concentrations of the compounds were calculated in Excel, and then the inhibition curves were made by GraphPad Prism software and the related parameters were calculated, including the minimum inhibition rate, the maximum inhibition rate and IC50.

OCI-LY3 cell line = test: OCI-LY3 cell proliferation inhibition (CTG); format: cell-based; conditions: Homo sapiens, incubated for 72 hours
Method: The tumor cell line used in this experiment was provided by Nanjing Cobioer Biotechnology Co., Ltd. See Table 13 below for specific information.
The tumor cell lines OCI-LY3 were used to detect the effect of the compound on inhibiting tumor cell proliferation in vitro. The OCI-LY3 cell line was cultured in the corresponding medium at 37° C. and 5% CO2, and the logarithmic growth phase cells were used in the experimental plating. The cells were collected and centrifuged at 800 rpm for 5 minutes, and the culture medium was re-suspended and spread in a 96-well plate. After incubating overnight in a 37° C., 5% CO2 incubator, the cells with different concentration gradients (10 μL of prepared diluent of the tested compound) were incubated for 72 hours, and the cell culture plates were incubated with CTG reagent at room temperature and away from light for 30 minutes, and then recovered to room temperature. 100 μL/hole of CTG solution was added into the biosafety cabinet away from light, and the plate shaker was shaken and mixed evenly away from light for 2 minutes, and incubated at room temperature away from light for 10 minutes. The luminescence values were read and recorded using the Perkin Elmer Envision 2104 MuLtilabel Reader.
The results of luminescence values measured at each drug concentration were normalized with the luminescence values of the blank control group, and the ratio of this value to the DMSO group was taken as the cell inhibition rate (%). Using GraphPad software, the logarithm of drug concentration (log drug concentration) versus inhibition rate was plotted, and the software automatically fitted and calculated IC50 value and 95% confidence limit value by log (inhibitor) vs. normalized response algorithm of nonlinear regression.

TNF-α secretion = test: In vivo pharmacodynamic study of LPS-induced TNF-α secretion in SD rats; conditions: SD rat, oral
Method: SD rats were orally given the solvent, the positive drug dexamethasone (DEX, 0.5 mg/kg) and the tested compound, and LPS (1 mg/kg) was intraperitoneally injected 0.5 hours after the administration. Two hours after LPS injection, the animals were euthanized by CO2, and blood samples were collected from the heart and placed in an anticoagulant tube containing EDTA-K2, then partial anticoagulated blood was centrifuged to separate the plasma and the plasma was frozen at −80° C.
The plasma was taken out of the refrigerator at −80° C., thawed at room temperature, and the concentration of TNF-α in the plasma was detected according to the ELISA kit instructions.
The experimental data were expressed by Mean±standard error (Mean±SEM), and the level of TNF-α was expressed by One-way ANOVA, and p<0.05 was considered as a significant difference. The result of in vivo pharmacodynamic study of TNF-α secretion in SD rats induced by […] (LPS) are shown in FIG. 1

[2] = system: human B-cell lymphoma OCI-LY10 cell subcutaneous xenograft tumor; test: Human B-cell lymphoma OCI-LY10 cell subcutaneous xenograft tumor mouse model; format: in vivo
Method: The objective of the experiment was to study the efficacy of WX001 as the test drug on human B-cell lymphoma OCI-LY10 cell subcutaneous xenograft tumor in CB17 SCID mouse model.
OCI-LY10 human B-cell lymphoma cells were cultured in a 37° C., 5% CO2 incubator.
OCI-LY10 tumor cells were cultured and passaged, and 0.2 mL (1×10^7 cells) OCI-LY10 cells were subcutaneously inoculated on the right back of each […] (with Matrigel, volume ratio 1:1), and the group administration was started when the average tumor volume reached 167 mm^3. The health status and death of animals were monitored every day, and routine examinations included observing the effects of tumor growth and drug treatment on daily behaviors of animals, such as behavioral activities, food intake and water intake, weight change (weight was measured twice a week), tumor size (tumor volume was measured twice a week), appearance signs or other abnormal conditions.
The experimental index was to investigate whether the tumor growth was inhibited, delayed or cured. Including the measurement of tumor volume (TV), and the calculation of the compound's anti-tumor efficacy using TGI (%) or the relative tumor proliferation rate T/C (%).
TV=0.5a×b^2, a and b represented the long diameter and short diameter of the tumor, respectively.
T/C %=TRTV/CRTV×100% (TRTV: RTV in treatment group; CRTV: RTV in negative control group). Relative tumor volume (RTV) was calculated according to the results of tumor measurement, and the calculation formula was RTV=Vt/V0, wherein V0 was the average tumor volume measured at the time of group administration (i.e., d0), Vt was the average tumor volume at a certain measurement, and TRTV and CRTV were the data taken at the same day.

[3] = 50 mpk, 18 days after the start of administration, p<0.001

With `Cc1cc(-c2nc(C(=O)Nc3cn4cc(CCC(C)(C)O)nc4cc3N3CCCCC3)co2)ccn1` [WX001] the IC50 [1] was 300 nM, the IC50 (OCI-LY3 cell line) was 1290 nM and the “inhibitory effect on TNF-α secretion induced by LPS” value (TNF-α secretion; LPS 1 mg/kg intraperitoneal 0.5 hours after administration, plasma 2 hours after LPS) was “significant inhibitory effect”. For the same molecule, the “efficacy on LPS-induced TNF-α secretion compared with dexamethasone” value (TNF-α secretion; dose of 20 mpk) was “equivalent to the efficacy of dexamethasone (DEX) at a dose of 0.5 mpk”, the “anti-tumor effect compared with the solvent control group” value ([2]; 50 mpk, 18 days) was “significant anti-tumor effect” and the T/C value [2, 3] was 22%. The TGI value [2, 3] was 109% and the “drug tolerance (body weight, abnormality)” value ([2]; OCI-LY10 xenograft mice, 18 days of administration) was “well tolerated”.
